Test results from paper PMC5078040 (Oncotarget, 2016).

Columns and labels:
ITK = target: T1, ITK (Homo sapiens, UniProt Q08881); test: KinomeScan; assay type: binding; conditions: 1uM
T1 construct: purchased DiscoveRx KINOMEscan

[1] = target: T2, RPS6KA4(Kin.Dom.1-N-terminal) (Homo sapiens, UniProt O75676); test: KinomeScan; assay type: binding; conditions: 1uM
T2 construct: RPS6KA4(Kin.Dom.1-N-terminal); purchased DiscoveRx KINOMEscan

MET(Y1235D) = target: T3, MET(Y1235D) (Homo sapiens, UniProt P08581, Y1235D); test: KinomeScan; assay type: binding; conditions: 1uM
T3 construct: purchased DiscoveRx KINOMEscan

ERK5 = target: T4, ERK5 (Homo sapiens, UniProt Q13164); test: KinomeScan; assay type: binding; conditions: 1uM
T4 construct: purchased DiscoveRx KINOMEscan

LIMK1 = target: T5, LIMK1 (Homo sapiens, UniProt P53667); test: KinomeScan; assay type: binding; conditions: 1uM
T5 construct: purchased DiscoveRx KINOMEscan

PRKG2 = target: T6, PRKG2 (Homo sapiens, UniProt Q13237); test: KinomeScan; assay type: binding; conditions: 1uM
T6 construct: purchased DiscoveRx KINOMEscan

PYK2 = target: T7, PYK2 (Homo sapiens, UniProt Q14289); test: KinomeScan; assay type: binding; conditions: 1uM
T7 construct: purchased DiscoveRx KINOMEscan

CDK8 = target: T8, CDK8 (Homo sapiens, UniProt P49336); test: KinomeScan; assay type: binding; conditions: 1uM
T8 construct: purchased DiscoveRx KINOMEscan

MAP3K1 = target: T9, MAP3K1 (Homo sapiens, UniProt Q13233); test: KinomeScan; assay type: binding; conditions: 1uM
T9 construct: purchased DiscoveRx KINOMEscan

TLK2 = target: T10, TLK2 (Homo sapiens, UniProt Q86UE8); test: KinomeScan; assay type: binding; conditions: 1uM
T10 construct: purchased DiscoveRx KINOMEscan

NIK = target: T11, NIK (Homo sapiens, UniProt Q99558); test: KinomeScan; assay type: binding; conditions: 1uM
T11 construct: purchased DiscoveRx KINOMEscan

[2] = system: phosphorylation of PRAS40 GSK3b and FOXO1; test: Signaling pathway effect examination (western blotting); assay type: cell-based, human; conditions: B-cell malignant cell lines
Description: (§1) The cells were collected and lysed, and cell lysates were analyzed by western blotting.

Erk phosphorylation = test: as above; assay type: cell-based, human
Description: as §1

4EBP1 phosphorylation = test: as above; assay type: cell-based, human; conditions: all of the cell lines
Description: as §1

[3] = system: phosphorylation of Akt at both Thr308 and Ser473; test: as above; assay type: cell-based, human; conditions: 1 hour
Description: as §1

[4] = system: NF-kB P65 phosphorylation; test: as above; assay type: cell-based, human; conditions: any of the tested cell lines
Description: as §1

MAPKAPK5 = target: T12, MAPKAPK5 (Homo sapiens, UniProt Q8IW41); test: KinomeScan; assay type: binding; conditions: 1uM
T12 construct: purchased DiscoveRx KINOMEscan

TRKC = target: T13, TRKC (Homo sapiens, UniProt Q16288); test: KinomeScan; assay type: binding; conditions: 1uM
T13 construct: purchased DiscoveRx KINOMEscan
T13 sequence (Q16288 32-839): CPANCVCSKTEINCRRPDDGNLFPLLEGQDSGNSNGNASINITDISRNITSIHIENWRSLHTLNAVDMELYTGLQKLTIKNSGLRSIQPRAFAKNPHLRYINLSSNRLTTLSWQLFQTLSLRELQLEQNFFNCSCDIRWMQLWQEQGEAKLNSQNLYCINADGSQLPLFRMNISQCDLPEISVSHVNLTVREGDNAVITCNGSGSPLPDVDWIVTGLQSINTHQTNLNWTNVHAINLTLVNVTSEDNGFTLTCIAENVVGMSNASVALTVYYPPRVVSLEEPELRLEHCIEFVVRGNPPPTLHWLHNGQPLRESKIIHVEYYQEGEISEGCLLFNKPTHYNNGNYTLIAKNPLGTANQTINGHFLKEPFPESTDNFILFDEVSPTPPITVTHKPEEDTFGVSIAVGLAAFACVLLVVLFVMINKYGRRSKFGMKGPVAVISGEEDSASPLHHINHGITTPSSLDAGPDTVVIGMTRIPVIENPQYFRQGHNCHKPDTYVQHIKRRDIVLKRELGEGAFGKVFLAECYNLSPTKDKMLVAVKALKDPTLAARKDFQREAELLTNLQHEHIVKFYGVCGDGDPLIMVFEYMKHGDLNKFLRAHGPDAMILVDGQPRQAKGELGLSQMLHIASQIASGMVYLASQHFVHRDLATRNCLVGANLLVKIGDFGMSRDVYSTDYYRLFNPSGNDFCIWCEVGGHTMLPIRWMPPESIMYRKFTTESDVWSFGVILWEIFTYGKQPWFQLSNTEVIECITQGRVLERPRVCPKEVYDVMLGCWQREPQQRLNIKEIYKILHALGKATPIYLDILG

CAMKK2 = target: T14, CAMKK2 (Homo sapiens, UniProt Q96RR4); test: KinomeScan; assay type: binding; conditions: 1uM
T14 construct: purchased DiscoveRx KINOMEscan

PKNB(M.tuberculosis) = target: T15, PKNB(M.tuberculosis) (Mycobacterium tuberculosis, UniProt P9WI81); test: KinomeScan; assay type: binding; conditions: 1uM
T15 construct: purchased DiscoveRx KINOMEscan

ICK = target: T16, ICK (Homo sapiens, UniProt Q9UPZ9); test: KinomeScan; assay type: binding; conditions: 1uM
T16 construct: purchased DiscoveRx KINOMEscan

ERBB4 = target: T17, ERBB4 (Homo sapiens, UniProt Q15303); test: KinomeScan; assay type: binding; conditions: 1uM
T17 construct: purchased DiscoveRx KINOMEscan

GSK3A = target: T18, GSK3A (Homo sapiens, UniProt P49840); test: KinomeScan; assay type: binding; conditions: 1uM
T18 construct: purchased DiscoveRx KINOMEscan

PKMYT1 = target: T19, PKMYT1 (Homo sapiens, UniProt Q99640); test: KinomeScan; assay type: binding; conditions: 1uM
T19 construct: purchased DiscoveRx KINOMEscan

YSK1 = target: T20, YSK1 (Homo sapiens, UniProt O00506); test: KinomeScan; assay type: binding; conditions: 1uM
T20 construct: purchased DiscoveRx KINOMEscan

MAST1 = target: T21, MAST1 (Homo sapiens, UniProt Q9Y2H9); test: KinomeScan; assay type: binding; conditions: 1uM
T21 construct: purchased DiscoveRx KINOMEscan

FLT3(D835Y) = target: T22, FLT3(D835Y) (Homo sapiens, UniProt P36888, D835Y); test: KinomeScan; assay type: binding; conditions: 1uM
T22 construct: purchased DiscoveRx KINOMEscan

PI3Kδ = PI3Kδ (Homo sapiens, UniProt O00329); test: ADP-glo biochemical assay; conditions: purified enzyme, read-out: biochemical IC50 PI3K Delta
Description: The reaction in each tube was started immediately by adding ATP and kept going for an hour under 37°C. After the tube cooled for 5 minutes at room temperature, 5 μL solvent reactions were carried out in a 384-well plate. Then 5 μL of ADP-Glo™ reagent was added into each well to stop the reaction and consume the remaining ADP within 40 minutes. At the end, 10 μL of kinase detection reagent was added into the well and incubated for 30 minutes to produce a luminescence signal. Luminescence signal was measured with an automated plate reader (Perkin-Elmer Envision) and each measurement was performed in triplicate.

[5] = target: T23, JAK1(JH2domain-pseudokinase) (Homo sapiens, UniProt P23458); test: KinomeScan; assay type: binding; conditions: 1uM
T23 construct: JAK1(JH2domain-pseudokinase); purchased DiscoveRx KINOMEscan

BIKE = target: T24, BIKE (Homo sapiens, UniProt Q9NSY1); test: KinomeScan; assay type: binding; conditions: 1uM
T24 construct: purchased DiscoveRx KINOMEscan

ABL1-nonphosphorylated = target: T25, ABL1-nonphosphorylated (Homo sapiens, UniProt P00519); test: KinomeScan; assay type: binding; conditions: 1uM
T25 construct: purchased DiscoveRx KINOMEscan
T25 sequence (P00519 whole entry): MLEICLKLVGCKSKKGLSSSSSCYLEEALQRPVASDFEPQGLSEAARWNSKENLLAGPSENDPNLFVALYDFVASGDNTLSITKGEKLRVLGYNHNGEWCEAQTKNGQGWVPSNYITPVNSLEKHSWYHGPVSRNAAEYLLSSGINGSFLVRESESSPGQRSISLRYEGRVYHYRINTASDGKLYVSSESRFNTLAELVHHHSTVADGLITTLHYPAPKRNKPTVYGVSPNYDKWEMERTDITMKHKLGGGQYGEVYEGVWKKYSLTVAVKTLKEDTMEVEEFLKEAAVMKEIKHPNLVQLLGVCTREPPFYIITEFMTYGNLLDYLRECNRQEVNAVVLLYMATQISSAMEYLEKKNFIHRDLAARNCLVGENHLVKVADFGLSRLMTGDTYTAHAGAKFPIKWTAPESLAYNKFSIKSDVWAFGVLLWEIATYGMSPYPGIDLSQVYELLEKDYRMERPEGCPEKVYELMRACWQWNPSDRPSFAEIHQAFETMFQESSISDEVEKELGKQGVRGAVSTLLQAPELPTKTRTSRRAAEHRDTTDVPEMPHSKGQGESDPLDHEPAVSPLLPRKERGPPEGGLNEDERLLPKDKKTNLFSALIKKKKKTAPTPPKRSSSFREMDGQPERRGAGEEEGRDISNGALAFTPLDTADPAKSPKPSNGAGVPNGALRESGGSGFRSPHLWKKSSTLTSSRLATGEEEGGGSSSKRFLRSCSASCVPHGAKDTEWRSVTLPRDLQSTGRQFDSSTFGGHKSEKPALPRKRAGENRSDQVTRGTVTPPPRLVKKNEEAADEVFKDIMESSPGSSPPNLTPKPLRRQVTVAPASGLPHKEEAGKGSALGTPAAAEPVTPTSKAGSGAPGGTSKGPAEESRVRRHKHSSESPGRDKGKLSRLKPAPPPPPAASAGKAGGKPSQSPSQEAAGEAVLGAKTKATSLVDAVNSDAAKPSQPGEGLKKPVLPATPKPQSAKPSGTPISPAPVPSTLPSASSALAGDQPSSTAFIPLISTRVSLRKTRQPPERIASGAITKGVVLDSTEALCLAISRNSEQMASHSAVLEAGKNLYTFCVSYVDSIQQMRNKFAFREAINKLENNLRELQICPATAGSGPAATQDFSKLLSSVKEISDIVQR

DMPK2 = target: T26, DMPK2 (Homo sapiens, UniProt Q6DT37); test: KinomeScan; assay type: binding; conditions: 1uM
T26 construct: purchased DiscoveRx KINOMEscan

SLK = target: T27, SLK (Homo sapiens, UniProt Q9H2G2); test: KinomeScan; assay type: binding; conditions: 1uM
T27 construct: purchased DiscoveRx KINOMEscan

ROCK1 = target: T28, ROCK1 (Homo sapiens, UniProt Q13464); test: KinomeScan; assay type: binding; conditions: 1uM
T28 construct: purchased DiscoveRx KINOMEscan
T28 sequence (Q13464 whole entry): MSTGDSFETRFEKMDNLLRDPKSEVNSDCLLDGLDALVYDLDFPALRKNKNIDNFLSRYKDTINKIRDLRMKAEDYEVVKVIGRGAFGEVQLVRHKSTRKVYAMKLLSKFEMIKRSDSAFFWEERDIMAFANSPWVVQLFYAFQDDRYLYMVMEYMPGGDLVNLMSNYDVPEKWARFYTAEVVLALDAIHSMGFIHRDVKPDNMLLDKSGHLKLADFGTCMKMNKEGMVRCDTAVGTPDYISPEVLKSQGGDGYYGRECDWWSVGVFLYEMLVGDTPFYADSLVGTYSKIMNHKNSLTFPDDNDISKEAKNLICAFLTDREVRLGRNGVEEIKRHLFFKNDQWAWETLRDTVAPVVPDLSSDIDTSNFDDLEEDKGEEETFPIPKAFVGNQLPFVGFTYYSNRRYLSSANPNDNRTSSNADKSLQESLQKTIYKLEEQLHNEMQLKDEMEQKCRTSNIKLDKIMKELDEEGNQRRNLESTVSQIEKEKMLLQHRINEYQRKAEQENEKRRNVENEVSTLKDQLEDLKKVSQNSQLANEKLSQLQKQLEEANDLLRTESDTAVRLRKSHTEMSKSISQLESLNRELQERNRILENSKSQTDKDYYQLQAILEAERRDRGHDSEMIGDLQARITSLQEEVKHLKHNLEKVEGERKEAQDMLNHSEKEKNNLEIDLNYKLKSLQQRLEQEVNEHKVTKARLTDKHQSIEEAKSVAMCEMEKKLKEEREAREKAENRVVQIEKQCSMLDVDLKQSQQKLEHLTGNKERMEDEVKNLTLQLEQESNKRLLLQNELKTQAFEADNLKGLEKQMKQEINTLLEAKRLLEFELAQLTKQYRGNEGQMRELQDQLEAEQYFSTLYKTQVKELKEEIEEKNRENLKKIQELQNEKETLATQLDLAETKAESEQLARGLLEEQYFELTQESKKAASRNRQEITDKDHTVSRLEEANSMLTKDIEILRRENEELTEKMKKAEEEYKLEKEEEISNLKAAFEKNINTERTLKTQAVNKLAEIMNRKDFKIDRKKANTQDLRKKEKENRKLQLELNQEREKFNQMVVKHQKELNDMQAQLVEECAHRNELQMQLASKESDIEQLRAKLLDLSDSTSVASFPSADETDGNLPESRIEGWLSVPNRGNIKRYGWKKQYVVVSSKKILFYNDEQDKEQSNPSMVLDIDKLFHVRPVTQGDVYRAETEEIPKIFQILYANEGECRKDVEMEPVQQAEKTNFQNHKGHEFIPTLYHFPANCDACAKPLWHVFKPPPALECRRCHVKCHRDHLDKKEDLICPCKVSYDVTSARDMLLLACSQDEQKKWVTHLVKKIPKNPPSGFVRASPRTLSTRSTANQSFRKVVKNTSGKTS

LZK = target: T29, LZK (Homo sapiens, UniProt O43283); test: KinomeScan; assay type: binding; conditions: 1uM
T29 construct: purchased DiscoveRx KINOMEscan
T29 sequence (O43283 whole entry): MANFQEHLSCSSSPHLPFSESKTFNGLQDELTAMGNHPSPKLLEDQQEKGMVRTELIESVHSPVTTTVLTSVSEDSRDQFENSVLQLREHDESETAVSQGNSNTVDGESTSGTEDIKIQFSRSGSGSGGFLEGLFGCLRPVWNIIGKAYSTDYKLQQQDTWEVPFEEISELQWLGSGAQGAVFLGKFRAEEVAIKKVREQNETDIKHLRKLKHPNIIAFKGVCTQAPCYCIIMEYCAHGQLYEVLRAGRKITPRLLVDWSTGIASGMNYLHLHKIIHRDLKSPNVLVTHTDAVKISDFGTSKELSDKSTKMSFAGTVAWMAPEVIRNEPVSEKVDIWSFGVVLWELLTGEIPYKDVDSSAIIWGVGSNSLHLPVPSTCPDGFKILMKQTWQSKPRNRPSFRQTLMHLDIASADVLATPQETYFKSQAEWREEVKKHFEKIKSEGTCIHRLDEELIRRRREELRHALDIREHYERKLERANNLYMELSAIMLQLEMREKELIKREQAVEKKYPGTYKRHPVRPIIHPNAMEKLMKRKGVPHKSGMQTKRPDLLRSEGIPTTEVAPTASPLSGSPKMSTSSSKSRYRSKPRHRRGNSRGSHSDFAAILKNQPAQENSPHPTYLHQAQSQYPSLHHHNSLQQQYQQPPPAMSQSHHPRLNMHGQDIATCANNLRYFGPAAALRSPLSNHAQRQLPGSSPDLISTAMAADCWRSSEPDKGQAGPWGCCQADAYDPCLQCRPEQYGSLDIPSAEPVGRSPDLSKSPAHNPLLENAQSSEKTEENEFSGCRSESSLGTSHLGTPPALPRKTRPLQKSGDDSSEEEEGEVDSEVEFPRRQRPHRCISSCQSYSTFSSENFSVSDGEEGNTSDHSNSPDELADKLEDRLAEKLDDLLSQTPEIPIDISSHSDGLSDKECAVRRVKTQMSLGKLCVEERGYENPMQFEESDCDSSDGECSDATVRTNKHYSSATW

EPHA1 = target: T30, EPHA1 (Homo sapiens, UniProt P21709); test: KinomeScan; assay type: binding; conditions: 1uM
T30 construct: purchased DiscoveRx KINOMEscan

ZAP70 = target: T31, ZAP70 (Homo sapiens, UniProt P43403); test: KinomeScan; assay type: binding; conditions: 1uM
T31 construct: purchased DiscoveRx KINOMEscan

EGFR(G719C) = target: T32, EGFR(G719C) (Homo sapiens, UniProt P00533, G719C); test: KinomeScan; assay type: binding; conditions: 1uM
T32 construct: purchased DiscoveRx KINOMEscan

RET(M918T) = target: T33, RET(M918T) (Homo sapiens, UniProt P07949, M918T); test: KinomeScan; assay type: binding; conditions: 1uM
T33 construct: purchased DiscoveRx KINOMEscan

[6] = target: T34, JAK3(JH1domain-catalytic) (Homo sapiens, UniProt P52333); test: KinomeScan; assay type: binding; conditions: 1uM
T34 construct: JAK3(JH1domain-catalytic); purchased DiscoveRx KINOMEscan

T1 sequence (Q08881 whole entry): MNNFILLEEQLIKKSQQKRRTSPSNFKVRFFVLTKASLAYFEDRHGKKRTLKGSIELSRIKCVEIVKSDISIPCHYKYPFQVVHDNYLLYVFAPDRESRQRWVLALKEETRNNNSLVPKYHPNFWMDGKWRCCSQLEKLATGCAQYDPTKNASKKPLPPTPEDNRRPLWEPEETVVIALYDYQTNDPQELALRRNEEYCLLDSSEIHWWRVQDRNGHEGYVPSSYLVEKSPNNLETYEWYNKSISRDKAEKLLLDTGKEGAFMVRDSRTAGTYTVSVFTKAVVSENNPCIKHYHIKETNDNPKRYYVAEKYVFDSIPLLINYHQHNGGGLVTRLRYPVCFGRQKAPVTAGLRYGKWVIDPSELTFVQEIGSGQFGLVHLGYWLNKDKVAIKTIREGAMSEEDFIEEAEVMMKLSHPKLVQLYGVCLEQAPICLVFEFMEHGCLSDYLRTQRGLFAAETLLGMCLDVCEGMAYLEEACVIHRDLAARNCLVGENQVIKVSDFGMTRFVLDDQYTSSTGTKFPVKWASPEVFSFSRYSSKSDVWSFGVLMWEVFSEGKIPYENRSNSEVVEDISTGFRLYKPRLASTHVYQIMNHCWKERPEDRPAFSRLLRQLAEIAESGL

For `Cc1nc(NC(=O)[C@@H](N)C(C)C)sc1-c1cnc(Cl)c(NS(=O)(=O)c2ccccc2)c1` [PI3KD-IN-015], the “KinomeScan ITK” value (ITK) was 100, the “KinomeScan RPS6KA4(Kin.Dom.1-N-terminal)” value [1] was 86 and the “KinomeScan MET(Y1235D)” value (MET(Y1235D)) was 100. The “KinomeScan ERK5” value (ERK5) was 100, the “KinomeScan LIMK1” value (LIMK1) was 100 and the “KinomeScan PRKG2” value (PRKG2) was 100. For the same molecule, the “KinomeScan PYK2” value (PYK2) was 95, the “KinomeScan CDK8” value (CDK8) was 100 and the “KinomeScan MAP3K1” value (MAP3K1) was 96. For the same molecule, the “KinomeScan TLK2” value (TLK2) was 100, the “KinomeScan NIK” value (NIK) was 83 and the “phosphorylation of Akt substrates PRAS40 GSK3b and FOXO1” value [2] was “decreased phosphorylation”. The Erk phosphorylation (Erk phosphorylation; MOLM13 and HT cells) was “not in MOLM13 and HT”, the Erk phosphorylation (Erk phosphorylation; Namalwa, MEC-1, MEC-2 and HS505T cells) was “reduced” and the 4EBP1 phosphorylation (4EBP1 phosphorylation) was “not changed at all”. The EC50 ([3]; Homo sapiens, CLL cell, HS505T (CLL) cells) was less than 1 µM, the EC50 ([3]; Homo sapiens, HT (B-NHL) cells) was less than 1 µM and the EC50 ([3]; Homo sapiens, MOLM-13 (AML) cells) was less than 1 µM. For the same molecule, the EC50 ([3]; MEC-1 (CLL) cells) was less than 1 µM, the EC50 ([3]; MEC-2 (CLL) cells) was less than 1 µM and the EC50 ([3]; Namalwa (Burkitt Lymphoma) cells) was less than 1 µM. The “NF-kB P65 phosphorylation” value [4] was “not inhibited”, the “KinomeScan MAPKAPK5” value (MAPKAPK5) was 82 and the “KinomeScan TRKC” value (TRKC) was 100. For the same molecule, the “KinomeScan CAMKK2” value (CAMKK2) was 96, the “KinomeScan PKNB(M.tuberculosis)” value (PKNB(M.tuberculosis)) was 79 and the “KinomeScan ICK” value (ICK) was 95. For the same molecule, the “KinomeScan ERBB4” value (ERBB4) was 98, the “KinomeScan GSK3A” value (GSK3A) was 95 and the “KinomeScan PKMYT1” value (PKMYT1) was 100. The “KinomeScan YSK1” value (YSK1) was 100, the “KinomeScan MAST1” value (MAST1) was 100 and the “KinomeScan FLT3(D835Y)” value (FLT3(D835Y)) was 98. The IC50 (PI3Kδ) was 0.005 µM, the “KinomeScan JAK1(JH2domain-pseudokinase)” value [5] was 100 and the “KinomeScan BIKE” value (BIKE) was 73. The “KinomeScan ABL1-nonphosphorylated” value (ABL1-nonphosphorylated) was 100, the “KinomeScan DMPK2” value (DMPK2) was 100 and the “KinomeScan SLK” value (SLK) was 100. The “KinomeScan ROCK1” value (ROCK1) was 100, the “KinomeScan LZK” value (LZK) was 92 and the “KinomeScan EPHA1” value (EPHA1) was 100. For the same molecule, the “KinomeScan ZAP70” value (ZAP70) was 96, the “KinomeScan EGFR(G719C)” value (EGFR(G719C)) was 100 and the “KinomeScan RET(M918T)” value (RET(M918T)) was 95. For the same molecule, the “KinomeScan JAK3(JH1domain-catalytic)” value [6] was 98.
